Test systems include HL-60(TB) leukemia; RXF 393 renal; OVCAR-8 ovarian; SK-MEL-5 melanoma; NCI-H522 lung; CCRF-CEM leukemia; NCI-H460 lung; UACC-62 melanoma; EKVX NSCLC; SNB-19 CNS.
What all share (test): NCI-60 cell line screen, 48 h

SMILES strings stand for the structures.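 Briefly, cells in 96-well plates were exposed to five compound concentrations for 48 h, and endpoints were estimated by linear interpolation. GI50: concentration for 50% inhibition of growth. TGI marks complete inhibition of growth.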

For the compound `CN1COc2c(n(C)c(=O)[nH]c2=O)C1`, the TGI was over 80.3 µM in the experiment with HL-60(TB) leukemia; 97.9 µM in the experiment with RXF 393 renal; over 100 µM with OVCAR-8 ovarian; over 100 µM with SK-MEL-5 melanoma; over 100 µM in the experiment with NCI-H522 lung; over 100 µM in the experiment on CCRF-CEM leukemia. Besides, the TGI in the experiment with NCI-H460 lung, with UACC-62 melanoma, in the experiment on EKVX NSCLC and in the experiment on SNB-19 CNS was over 100 µM each time.
Turning to `Cn1cc(-c2nonc2-c2cn(C)c3ccccc23)c2ccccc21`, the GI50 in the experiment on HL-60(TB) leukemia is 0.483 µM; in the experiment on RXF 393 renal, 0.827 µM; in the experiment with OVCAR-8 ovarian it was 1.5 µM; with SK-MEL-5 melanoma, 1.34 µM; in the experiment with NCI-H522 lung, 0.402 µM; in the experiment with CCRF-CEM leukemia, 0.703 µM. Besides, the GI50 in the experiment on NCI-H460 lung is 0.579 µM; in the experiment with UACC-62 melanoma it was 0.442 µM; in the experiment on EKVX NSCLC, 1.7 µM; in the experiment on SNB-19 CNS, 0.91 µM. In addition, the TGI in the experiment with HL-60(TB) leukemia was 1.72 µM; with RXF 393 renal, 21.9 µM; in the experiment on OVCAR-8 ovarian it was over 100 µM; in the experiment with SK-MEL-5 melanoma, over 100 µM; in the experiment on NCI-H522 lung, over 100 µM; in the experiment with CCRF-CEM leukemia, over 100 µM. The TGI in the experiment on NCI-H460 lung, in the experiment with UACC-62 melanoma, in the experiment with EKVX NSCLC and with SNB-19 CNS was over 100 µM in each case.
Turning to `CCn1c2ccccc2c2cc(/C=C(/C#N)C(N)=O)ccc21`, the GI50 with HL-60(TB) leukemia was 4.76 µM; in the experiment with RXF 393 renal, 2.57 µM; with OVCAR-8 ovarian, 42.6 µM; with SK-MEL-5 melanoma, 8.5 µM; in the experiment with NCI-H522 lung, 11.7 µM; in the experiment on CCRF-CEM leukemia it was 13.2 µM. Moreover, the GI50 with NCI-H460 lung is 1.67 µM; in the experiment with UACC-62 melanoma, 1.91 µM; in the experiment on EKVX NSCLC, 3.57 µM; with SNB-19 CNS, 10.2 µM. Also, the TGI is over 67.3 µM in the experiment on HL-60(TB) leukemia; 19.3 µM with RXF 393 renal; over 100 µM in the experiment on OVCAR-8 ovarian; 54.2 µM with SK-MEL-5 melanoma; over 100 µM with NCI-H522 lung; over 100 µM in the experiment with CCRF-CEM leukemia. Besides, the TGI in the experiment with NCI-H460 lung was 13.3 µM; in the experiment with UACC-62 melanoma, 7.65 µM; in the experiment with EKVX NSCLC it was over 48.7 µM; with SNB-19 CNS, over 87.8 µM.
As for `CCOc1nc(N)nc(C)c1N=Nc1ccc(Cl)cc1`, the TGI with HL-60(TB) leukemia, in the experiment with RXF 393 renal, in the experiment on OVCAR-8 ovarian, in the experiment on SK-MEL-5 melanoma, with NCI-H522 lung and in the experiment with CCRF-CEM leukemia was over 100 µM throughout. In addition, the TGI with NCI-H460 lung, with UACC-62 melanoma, with EKVX NSCLC and in the experiment on SNB-19 CNS was over 100 µM throughout.
With `CCN1C(=O)N(CC)C2C1NN=c1s/c(=C3\C(=O)N(CCc4ccccc4)c4ccccc43)c(=O)n12` (stereo not given), the GI50 in the experiment with HL-60(TB) leukemia was 0.538 µM; in the experiment on RXF 393 renal, 0.262 µM; in the experiment with OVCAR-8 ovarian, 0.74 µM; in the experiment on SK-MEL-5 melanoma it was 0.305 µM; in the experiment on NCI-H522 lung, 0.337 µM; in the experiment with CCRF-CEM leukemia, 2.58 µM. For the same compound, the GI50 was 0.361 µM in the experiment with NCI-H460 lung, 0.637 µM with UACC-62 melanoma, 0.641 µM in the experiment on EKVX NSCLC and 0.845 µM in the experiment on SNB-19 CNS. The TGI was 1.56 µM with HL-60(TB) leukemia; 1.01 µM with RXF 393 renal; over 43.1 µM in the experiment with OVCAR-8 ovarian; 1.23 µM in the experiment on SK-MEL-5 melanoma; 3.95 µM in the experiment with NCI-H522 lung; over 100 µM with CCRF-CEM leukemia. In addition, the TGI in the experiment on NCI-H460 lung is 1.88 µM; in the experiment with UACC-62 melanoma, 11.5 µM; in the experiment on EKVX NSCLC, over 100 µM; in the experiment on SNB-19 CNS it was 19.6 µM.
For the compound `COC(=O)C(C)(C)N=CN(C)C`, the TGI with HL-60(TB) leukemia, in the experiment with RXF 393 renal, in the experiment with OVCAR-8 ovarian, with SK-MEL-5 melanoma, with NCI-H522 lung and in the experiment on CCRF-CEM leukemia was over 100 µM in each case. The TGI in the experiment on NCI-H460 lung, with UACC-62 melanoma, with EKVX NSCLC and with SNB-19 CNS was over 100 µM in each case.
Regarding `N#Cc1c(N)[nH]c2ccc(Sc3ccccc3)cc12`, the TGI with HL-60(TB) leukemia came to 1.92 µM; in the experiment with RXF 393 renal it was 5.48 µM; in the experiment with OVCAR-8 ovarian it was 12 µM; with SK-MEL-5 melanoma, 4.43 µM; in the experiment with NCI-H522 lung, 3.21 µM; in the experiment with CCRF-CEM leukemia, 13.8 µM. Moreover, the TGI in the experiment with NCI-H460 lung is 21.6 µM; with UACC-62 melanoma it was 2.5 µM; with EKVX NSCLC it was 11.7 µM; with SNB-19 CNS, 17.2 µM.
Regarding `N#CN1CC[C@H](C(=O)Nc2ncc(-c3ccncc3)s2)C1`, the GI50 with HL-60(TB) leukemia is under 0.0171 µM; in the experiment on RXF 393 renal it was 0.0238 µM; with OVCAR-8 ovarian it was 0.0596 µM; with SK-MEL-5 melanoma, 0.0925 µM; in the experiment with NCI-H522 lung it was under 0.0149 µM; in the experiment on CCRF-CEM leukemia, under 0.0156 µM. The GI50 in the experiment with NCI-H460 lung was under 0.0208 µM; in the experiment on UACC-62 melanoma, under 0.0172 µM; in the experiment on EKVX NSCLC it was 0.0642 µM; in the experiment on SNB-19 CNS it was 0.415 µM. The TGI with HL-60(TB) leukemia is under 0.028 µM; with RXF 393 renal it was 0.242 µM; in the experiment on OVCAR-8 ovarian it was over 100 µM; with SK-MEL-5 melanoma, 5.58 µM; in the experiment with NCI-H522 lung, 0.0499 µM; with CCRF-CEM leukemia, over 100 µM. Further, the TGI in the experiment on NCI-H460 lung was 14.3 µM; with UACC-62 melanoma it was 1.32 µM; with EKVX NSCLC, 4.4 µM; with SNB-19 CNS, over 69.6 µM.
As for `CN(CC(N)=O)C(=O)N(CCCl)N=O`, the TGI in the experiment on HL-60(TB) leukemia, in the experiment on RXF 393 renal, in the experiment on OVCAR-8 ovarian, with SK-MEL-5 melanoma, in the experiment with NCI-H522 lung and in the experiment on CCRF-CEM leukemia was over 100 µM throughout. Moreover, the TGI with NCI-H460 lung, with UACC-62 melanoma, in the experiment on EKVX NSCLC and in the experiment with SNB-19 CNS was over 100 µM in each case.
For `O=[N+]([O-])c1cc(S(=O)(=O)Oc2ccccc2)ccc1Cl`, the GI50 in the experiment with HL-60(TB) leukemia is 1.92 µM; in the experiment with RXF 393 renal, 5.57 µM; in the experiment on OVCAR-8 ovarian, 5.15 µM; in the experiment on SK-MEL-5 melanoma it was 4.06 µM; in the experiment on NCI-H522 lung it was 1.99 µM; with CCRF-CEM leukemia it was 0.594 µM. In addition, the GI50 is 2.04 µM in the experiment on NCI-H460 lung, 3.55 µM in the experiment on UACC-62 melanoma, 1.99 µM in the experiment with EKVX NSCLC and 3.11 µM in the experiment with SNB-19 CNS. In addition, the TGI turned out to be 6.84 µM in the experiment with HL-60(TB) leukemia; 17.7 µM in the experiment with RXF 393 renal; 19.7 µM in the experiment with OVCAR-8 ovarian; 15 µM in the experiment with SK-MEL-5 melanoma; 3.62 µM in the experiment on NCI-H522 lung; 3.53 µM in the experiment on CCRF-CEM leukemia. For the same compound, the TGI with NCI-H460 lung came out at 4.06 µM; in the experiment with UACC-62 melanoma it was 13.5 µM; in the experiment on EKVX NSCLC it was 4.07 µM; in the experiment with SNB-19 CNS, 11.1 µM.

(Values after PubChem BioAssay (NCI).)
